Measurements from the NIST ThermoML archive (doi:10.1016/j.jct.2019.02.028).

Test: xn = mol fraction of the nth substance listed
Conditions: Gas, Burnett expansion method

C=C(F)C(F)(F)F [2,3,3,3-tetrafluoro-1-propene] + FCF
Conditions | mass density [kg/m3]
298.75 K, 572.1 kPa, x2 = 0.119 | 28.04
298.79 K, 1055.5 kPa, x2 = 0.698 | 36.11
298.8 K, 475.09 kPa, x2 = 0.449 | 18
298.8 K, 476.95 kPa, x2 = 0.259 | 20.72
298.8 K, 518.4 kPa, x2 = 0.698 | 16.01
298.8 K, 684.19 kPa, x2 = 0.449 | 27.04
298.82 K, 748.46 kPa, x2 = 0.698 | 24.04
298.86 K, 487.12 kPa, x2 = 0.874 | 12.55
298.86 K, 1393.8 kPa, x2 = 0.874 | 42.51
298.87 K, 1004.6 kPa, x2 = 0.874 | 28.3
298.93 K, 704.35 kPa, x2 = 0.874 | 18.84
308.66 K, 1524.8 kPa, x2 = 0.698 | 54.21
308.68 K, 1108.2 kPa, x2 = 0.698 | 36.09
308.69 K, 597.54 kPa, x2 = 0.119 | 28.02
308.7 K, 493.92 kPa, x2 = 0.449 | 17.99
308.7 K, 496.45 kPa, x2 = 0.259 | 20.72
308.71 K, 538.99 kPa, x2 = 0.698 | 16
308.71 K, 714.14 kPa, x2 = 0.449 | 27.02
308.71 K, 842.28 kPa, x2 = 0.119 | 42.09
308.72 K, 712.34 kPa, x2 = 0.259 | 31.11
308.72 K, 997.47 kPa, x2 = 0.259 | 46.73
308.73 K, 780.62 kPa, x2 = 0.698 | 24.03
308.74 K, 1976.1 kPa, x2 = 0.874 | 63.81
308.76 K, 1011.1 kPa, x2 = 0.449 | 40.58
308.77 K, 1470.2 kPa, x2 = 0.874 | 42.48
308.78 K, 1051.3 kPa, x2 = 0.874 | 28.28
308.79 K, 506.01 kPa, x2 = 0.874 | 12.54
308.82 K, 733.43 kPa, x2 = 0.874 | 18.83
313.6 K, 1566.5 kPa, x2 = 0.698 | 54.19
313.64 K, 503.35 kPa, x2 = 0.449 | 17.98
313.64 K, 1134 kPa, x2 = 0.698 | 36.08
313.65 K, 610.01 kPa, x2 = 0.119 | 28.01
313.66 K, 506.36 kPa, x2 = 0.259 | 20.71
313.66 K, 728.88 kPa, x2 = 0.449 | 27.01
313.67 K, 796.71 kPa, x2 = 0.698 | 24.02
313.68 K, 549.32 kPa, x2 = 0.698 | 15.99
313.68 K, 727.83 kPa, x2 = 0.259 | 31.11
313.68 K, 862.42 kPa, x2 = 0.119 | 42.07
313.68 K, 1021.8 kPa, x2 = 0.259 | 46.73
313.7 K, 1507.4 kPa, x2 = 0.874 | 42.47
313.7 K, 2038.5 kPa, x2 = 0.874 | 63.79
313.72 K, 1034.8 kPa, x2 = 0.449 | 40.57
313.72 K, 1074 kPa, x2 = 0.874 | 28.28
313.74 K, 515.35 kPa, x2 = 0.874 | 12.53
313.79 K, 747.77 kPa, x2 = 0.874 | 18.83
318.62 K, 1609.8 kPa, x2 = 0.698 | 54.18
318.68 K, 1159.3 kPa, x2 = 0.698 | 36.07
318.7 K, 2100 kPa, x2 = 0.874 | 63.77
318.72 K, 512.99 kPa, x2 = 0.449 | 17.98
318.72 K, 882.63 kPa, x2 = 0.119 | 42.06
318.72 K, 1210.1 kPa, x2 = 0.119 | 63.25
318.73 K, 516.26 kPa, x2 = 0.259 | 20.71
318.73 K, 743.73 kPa, x2 = 0.449 | 27
318.73 K, 813.03 kPa, x2 = 0.698 | 24.02
318.73 K, 1463.2 kPa, x2 = 0.449 | 61.04
318.74 K, 559.65 kPa, x2 = 0.698 | 15.99
318.74 K, 743.48 kPa, x2 = 0.259 | 31.1
318.74 K, 1046.5 kPa, x2 = 0.259 | 46.72
318.74 K, 1058.5 kPa, x2 = 0.449 | 40.56
318.74 K, 1097.2 kPa, x2 = 0.874 | 28.27
318.74 K, 1544.9 kPa, x2 = 0.874 | 42.46
318.75 K, 622.85 kPa, x2 = 0.119 | 28
318.77 K, 762.25 kPa, x2 = 0.874 | 18.82
318.78 K, 525.03 kPa, x2 = 0.874 | 12.53
323.56 K, 1650.9 kPa, x2 = 0.698 | 54.16
323.62 K, 1184.6 kPa, x2 = 0.698 | 36.06
323.62 K, 2161.1 kPa, x2 = 0.874 | 63.75
323.67 K, 522.17 kPa, x2 = 0.449 | 17.97
323.67 K, 902.39 kPa, x2 = 0.119 | 42.05
323.67 K, 2803.5 kPa, x2 = 0.874 | 96.27
323.68 K, 525.72 kPa, x2 = 0.259 | 20.71
323.68 K, 569.78 kPa, x2 = 0.698 | 15.98
323.68 K, 758.4 kPa, x2 = 0.449 | 27
323.68 K, 828.96 kPa, x2 = 0.698 | 24.01
323.68 K, 1081.3 kPa, x2 = 0.449 | 40.55
323.69 K, 533.88 kPa, x2 = 0.874 | 12.53
323.69 K, 758.79 kPa, x2 = 0.259 | 31.1
323.69 K, 1070.4 kPa, x2 = 0.259 | 46.71
323.69 K, 1460 kPa, x2 = 0.259 | 70.1
323.69 K, 1502 kPa, x2 = 0.449 | 61.01
323.69 K, 2207.6 kPa, x2 = 0.698 | 81.35
323.7 K, 635.26 kPa, x2 = 0.119 | 27.99
323.7 K, 1243.5 kPa, x2 = 0.119 | 63.23
323.7 K, 1581.8 kPa, x2 = 0.874 | 42.45
323.71 K, 776.56 kPa, x2 = 0.874 | 18.81
323.73 K, 1120.2 kPa, x2 = 0.874 | 28.26
328.55 K, 1691.6 kPa, x2 = 0.698 | 54.15
328.58 K, 1209.7 kPa, x2 = 0.698 | 36.05
328.6 K, 543.23 kPa, x2 = 0.874 | 12.52
328.61 K, 531.32 kPa, x2 = 0.449 | 17.97
328.61 K, 772.98 kPa, x2 = 0.449 | 26.99
328.61 K, 1275.3 kPa, x2 = 0.119 | 63.21
328.62 K, 579.61 kPa, x2 = 0.698 | 15.98
328.62 K, 2220.5 kPa, x2 = 0.874 | 63.73
328.62 K, 2904.2 kPa, x2 = 0.874 | 96.19
328.63 K, 535.28 kPa, x2 = 0.259 | 20.7
328.63 K, 844.62 kPa, x2 = 0.698 | 24
328.63 K, 922.19 kPa, x2 = 0.119 | 42.04
328.63 K, 1094.6 kPa, x2 = 0.259 | 46.71
328.63 K, 1105.1 kPa, x2 = 0.449 | 40.54
328.63 K, 1499.1 kPa, x2 = 0.259 | 70.09
328.64 K, 647.48 kPa, x2 = 0.119 | 27.99
328.64 K, 773.73 kPa, x2 = 0.259 | 31.1
328.64 K, 1540.2 kPa, x2 = 0.449 | 60.98
328.64 K, 2275.8 kPa, x2 = 0.698 | 81.33
328.65 K, 1617.6 kPa, x2 = 0.874 | 42.43
328.66 K, 790.86 kPa, x2 = 0.874 | 18.81
328.67 K, 1142.6 kPa, x2 = 0.874 | 28.25
333.46 K, 1731.9 kPa, x2 = 0.698 | 54.13
333.56 K, 540.51 kPa, x2 = 0.449 | 17.96
333.57 K, 941.58 kPa, x2 = 0.119 | 42.02
333.57 K, 1235.3 kPa, x2 = 0.698 | 36.04
333.57 K, 2278.9 kPa, x2 = 0.874 | 63.71
333.57 K, 2342.7 kPa, x2 = 0.698 | 81.3
333.58 K, 544.62 kPa, x2 = 0.259 | 20.7
333.58 K, 1578 kPa, x2 = 0.449 | 60.96
333.58 K, 1734.6 kPa, x2 = 0.119 | 94.99
333.58 K, 2115 kPa, x2 = 0.449 | 91.6
333.58 K, 3002.9 kPa, x2 = 0.874 | 96.12
333.59 K, 659.59 kPa, x2 = 0.119 | 27.98
333.59 K, 787.46 kPa, x2 = 0.449 | 26.98
333.59 K, 788.83 kPa, x2 = 0.259 | 31.09
